Laboratory results as given in patent US4558052A, “10-Bromosandwicine, 10-bromoisosandwicine, pharmaceutical compositions thereof, and methods of treating heart rhythm disorders with them” (Kali-Chemie Pharma GmbH, priority 1979, dated 1985).
“Also recorded” adds a separate entry of the source. Counter-ions that a name gives are not always drawn.

Legend:
[1] = words, known from literature; cited from earlier work
[2] = Antiarrhythmic activity in a standard pharmacological in vivo test procedure; conditions: words
male NMRI-mice [3] = experiment: Minimum symptom dose at which any undesirable side effects are detected (Campbell and Richter); format: in vivo; conditions: dose causing changes in behaviour in 2 out of 3 mice
Procedure: B. Determination of minimum symptom dose at which any undesirable side effects are detected.
The minimum symptom dose is determined in male NMRI-mice (body weight range 18-22 g) according to the procedure of Campbell and Richter (see D. E. S. Campbell and W. Richter. Acta Pharmacol. Toxicol. 25 (1967) pp. 345-363). The minimum symptom dose is defined as that dose in μmol/kg which after i.p. administration causes changes in behaviour in 2 out of 3 mice. The minimum symptom dose is a measure for evaluation of undesirable side effects.

[4] = system: cardiac extra-systoles induced by aconitine; experiment: Antiarrhythmic activity against cardiac extra-systoles induced by aconitine in rats (Raschack); format: in vivo; conditions: i.v., equitoxic dose about 5% of the i.p. LD50 in mice, aconitine 5 μg/kg/min i.v., vs control group
Procedure: C. Determination of antiarrhythmic activity against cardiac extra-systoles induced by aconitine in rats.
The protective effects of the compounds against extra-systoles (ES) caused by aconitine infusion in rats are determined according to the method of Raschack (Arzneimittelforsch. 25 (1975) 639-641).
Male Wistar rats having a body weight of 320-400 g are anesthetized by i.p. application of 1.25 g/kg urethane. The animals are placed on their backs and their electrocardiogram is registered every 30 seconds during the test. The animals are given an i.v. aconitine infusion at an infusion rate of 5 μg/kg/min of aconitine with an infusion volume of 0.1 ml/minute. 5 Minutes prior to starting the aconitine infusion the animals are given a solution of the test compound in an amount of 2 ml/kg bodyweight of isotonic NaCl solution by i.v. infusion over a period of about 2.5 minutes. A control group of animals is given only the vehicle solution. The infusion time until occurence of extra-systoles is determined.
Antiarrhythmically active test compounds lead to a retardation of the onset of aconitine-induced cardiac extra-systoles in the treated animals as compared with the group of control animals. The degree of prolongation of aconitine-infusion time and thus of increase of administered amount of aconitine up to which the animals are protected against the aconitine induced extra-systoles is an indication of the degree of antiarrhythmic activity of the test compounds.
Equitoxic doses of the test compounds are used namely doses which correspond to about 5% of the i.p. LD50 of the compound in mice. The % increase in aconitine infusion time (that is % increase of administered amount of aconitine) until onset of the extra-systoles in the treated animals as compared with the control group is determined.

male NMRI-mice [5] = experiment: Acute toxicity LD50 i.p. and p.o. in mice; format: in vivo; conditions: probit analysis
Procedure: A. Determination of acute toxicity LD50 i.p. and p.o. in mice.
The acute toxicity of the compounds is determined in male NMRI-mice (body weight range 18-22 g) after i.p. or p.o. administration. The LD50 values are calculated by means of electronic data processing through a probit analysis.

SMILES | cardiac / antiarrhythmic activities [1] | Minimum symptom dose i.p. (male NMRI-mice [3]) | Toxicity LD50 i.p. (male NMRI-mice [5]) | Toxicity LD50 p.o. (male NMRI-mice [5]) | also measured
CCC1C2CC3C4N(C)c5ccc(Br)cc5C45CC(C2C5O)N3C1O (stereo not drawn) [10-bromoajmaline] | cardiac activities |  |  |  | 
CC[C@@H]1[C@H]2C[C@H]3[C@@H]4N(C)c5ccccc5[C@]45C[C@@H](C2[C@H]5O)N3[C@H]1O (stereo partly drawn) [isoajmaline] | cardiac activities including antiarrhythmic activities |  |  |  | 
CCC1C2CC3C4N(C)c5ccccc5C45CC(C2C5O)N3C1O (stereo not drawn) [sandwicine, Sandwicine] |  |  |  |  | antiarrhythmic activity [2]: no significant antiarrhythmic effects; also recorded: no significant antiarrhythmic activities
CCC1C2CC3C4N(C)c5ccc(Br)cc5C45CC(C2C5O)N3C1O (stereo not drawn) [10-bromoisosandwicine hydrogen tartrate, 10-bromoisosandwicinium hydrogentartrate] |  | 3 µmol/kg | 25 µmol/kg | 65 µmol/kg | Antiarrhythmic activity, ES-inhibiting effect: % prolongation of aconitine infusion time until onset of extra-systoles [4]: 25%
CCC1C2CC3C4N(C)c5ccccc5C45CC(C2C5O)N3C1O (stereo not drawn) [Isosandwicine hydrogen fumarate] |  | 10 µmol/kg | ~ 56 μmol/kg | 471 µmol/kg | ES-inhibiting effect (result in words) [4]: not significant
CCC1C2CC3C4N(C)c5ccccc5C45CC(C2C5O)N3C1O (stereo not drawn) [isosandwicine] |  |  |  |  | antiarrhythmic activity [2]: no significant antiarrhythmic effects; also recorded: no significant antiarrhythmic activities
CC[C@H]1[C@@H]2C[C@H]3[C@@H]4N(C)c5ccccc5[C@]45C[C@@H]([C@H]2[C@H]5O)N3[C@@H]1O [Ajmaline] | cardiac activities including antiarrhythmic activities |  |  |  | 
CCC1C2CC3C4N(C)c5ccc(Br)cc5C45CC(C2C5O)N3C1O (stereo not drawn) [10-bromosandwicine hydrogen tartrate, 10-bromosandwicine hydrogentartrate] |  | 92 µmol/kg | 307 µmol/kg | 2200 µmol/kg | Antiarrhythmic activity, ES-inhibiting effect: % prolongation of aconitine infusion time until onset of extra-systoles [4]: 25%
CCC1C2CC3C4N(C)c5ccccc5C45CC(C2C5O)N3C1O (stereo not drawn) [Sandwicine hydrogen tartrate] |  | 58 µmol/kg | ~ 325 μmol/kg | 1530 µmol/kg | ES-inhibiting effect (result in words) [4]: not significant
